Results from PubChem BioAssay AID330 (DTP/NCI, 2004).
Where “and” joins values, the source holds several entries; their conditions need not be identical. Equal entries are not always repeated. Toxic doses and inconclusive results are not listed. How the source made its calls: active means survival T/C of 150% or more; inactive means T/C below 125% in these data.

System: P388 leukemia ip, CD2F1 mice, survival T/C
Experiment: NCI In Vivo Anticancer Drug Screen. Data for tumor model P388 Leukemia (intraperitoneal) in CD2F1 (CDF1) mice
Settings: endpoint: median survival time, higher = longer survival
How it was run: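 Mice carrying the transplanted tumor received test compound or vehicle. Survival was recorded in each group, and the value is the treated-group measurement divided by that of the vehicle-treated control group.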

[1] = dose: 50.0 mg/kg/injection, schedule: Q01DX009 (ip), vehicle: Klucel (hydroxypropylcellulose) (HPC)
[2] = dose: 100.0 mg/kg/injection, schedule: Q01DX009 (ip), vehicle: Klucel (hydroxypropylcellulose) (HPC)
[3] = dose: 50.0 mg/kg/injection, schedule: Q01DX005 (ip), vehicle: Klucel (hydroxypropylcellulose) (HPC)
[4] = dose: 100.0 mg/kg/injection, schedule: Q01DX005 (ip), vehicle: Klucel (hydroxypropylcellulose) (HPC)
[5] = dose: 200.0 mg/kg/injection, schedule: Q01DX005 (ip), vehicle: Klucel (hydroxypropylcellulose) (HPC)
[6] = dose: 50.0 mg/kg/injection, schedule: Q01DX009 (ip), vehicle: saline with Tween-80
[7] = dose: 100.0 mg/kg/injection, schedule: Q01DX009 (ip), vehicle: saline with Tween-80
[8] = dose: 200.0 mg/kg/injection, schedule: Q01DX009 (ip), vehicle: saline with Tween-80
[9] = dose: 100.0 mg/kg/injection, schedule: Q04DX003 (ip), vehicle: Klucel (hydroxypropylcellulose) (HPC)
[10] = dose: 200.0 mg/kg/injection, schedule: Q04DX003 (ip), vehicle: Klucel (hydroxypropylcellulose) (HPC)
[11] = dose: 400.0 mg/kg/injection, schedule: Q04DX003 (ip), vehicle: Klucel (hydroxypropylcellulose) (HPC)
[12] = dose: 60.0 mg/kg/injection, schedule: Q01DX005 (ip), vehicle: Klucel (hydroxypropylcellulose) (HPC)
[13] = dose: 120.0 mg/kg/injection, schedule: Q01DX005 (ip), vehicle: Klucel (hydroxypropylcellulose) (HPC)
[14] = dose: 100.0 mg/kg/injection, schedule: Q01DX009 (ip), vehicle: other
[15] = dose: 200.0 mg/kg/injection, schedule: Q01DX009 (ip), vehicle: other
[16] = dose: 400.0 mg/kg/injection, schedule: Q01DX009 (ip), vehicle: other
[17] = dose: 240.0 mg/kg/injection, schedule: Q01DX005 (ip), vehicle: Klucel (hydroxypropylcellulose) (HPC)
[18] = dose: 50.0 mg/kg/injection, schedule: Q01DX009 (ip), vehicle: saline
[19] = dose: 100.0 mg/kg/injection, schedule: Q01DX009 (ip), vehicle: saline
[20] = dose: 200.0 mg/kg/injection, schedule: Q01DX009 (ip), vehicle: saline
[21] = dose: 50.0 mg/kg/injection, schedule: Q01DX005 (ip), vehicle: saline with Tween-80
[22] = dose: 15.0 mg/kg/injection, schedule: Q01DX005 (ip), vehicle: saline with Tween-80
[23] = dose: 60.0 mg/kg/injection, schedule: Q01DX005 (ip), vehicle: saline with Tween-80
[24] = dose: 120.0 mg/kg/injection, schedule: Q01DX005 (ip), vehicle: saline with Tween-80
[25] = dose: 12.5 mg/kg/injection, schedule: Q01DX009 (ip), vehicle: saline with Tween-80

Measured: T/C

CC(C)(C)C(=O)Nc1ccc(S(=O)(=O)Nc2ccc(N)cc2O)cc1
inactive: [1] 112 % of control | [2] 97 % of control | dose: 200.0 mg/kg/injection, schedule: Q01DX009 (ip), vehicle: Klucel (hydroxypropylcellulose) (HPC) 115 % of control

CCCCN(Cc1c(O)ccc2ccccc12)Cc1c(O)ccc2ccccc12
inactive: [3] 95 % of control | [4] 97 % of control | [5] 94 % of control

S=C1SCN(Cc2ccccc2)CN1Cc1ccccc1
inactive: [6] 100 % of control | [7] 93 % of control | [8] 89 % of control

[O-]c1n[n+](Cc2ccc(Cl)cc2)no1
inactive: [9] 102 % of control | [10] 119 % of control

O=C1CC2(CCCCC2)C(=O)N1c1ccc(N2C(=O)CC3(CCCCC3)C2=O)cc1
inactive: [9] 99 % of control | [10] 93 % of control | [11] 96 % of control

COc1cc(NC(=O)C2=C(C)NC(C)=C(C(=O)Nc3cc(OC)c(Cl)cc3OC)C2c2cccc([N+](=O)[O-])c2)c(OC)cc1Cl
inactive: [12] 89 % of control | [13] 89 % of control

Cn1c(=O)c2cc3c(cc2c2ccccc21)OCO3
inactive: dose: 25.0 mg/kg/injection, schedule: Q01DX009 (ip), vehicle: other 90 % of control | dose: 50.0 mg/kg/injection, schedule: Q01DX009 (ip), vehicle: other 93 % of control | [14] 90 % of control | [15] 90 % of control | [16] 93 % of control

O=C1OCc2cc3c(cc2-c2ccccc21)OCO3
inactive: dose: 100.0 mg/kg/injection, schedule: Q04DX002 (ip), vehicle: saline with Tween-80 95 % of control | dose: 200.0 mg/kg/injection, schedule: Q04DX002 (ip), vehicle: saline with Tween-80 101 % of control | dose: 400.0 mg/kg/injection, schedule: Q04DX002 (ip), vehicle: saline with Tween-80 91 % of control

S=C1NC2(CCCCCC2)NN1c1ccccc1
inactive: [6] 97 % of control | [7] 94 % of control | [8] 91 % of control

NC(CS(=O)(=O)O)C(=O)O (centres undefined)
inactive: dose: 100.0 mg/kg/injection, schedule: Q04DX002 (ip), vehicle: saline 105 % of control | dose: 200.0 mg/kg/injection, schedule: Q04DX002 (ip), vehicle: saline 96 % of control

CC1(C)C(=O)N(Br)C(=O)N1Br
inactive: dose: 12.5 mg/kg/injection, schedule: Q01DX009 (ip), vehicle: Klucel (hydroxypropylcellulose) (HPC) 101 % of control | dose: 25.0 mg/kg/injection, schedule: Q01DX009 (ip), vehicle: Klucel (hydroxypropylcellulose) (HPC) 99 % of control | [1] 99 % of control | [2] 90 % of control

Cc1ccc(CNc2ccc(I)cc2)cc1
inactive: [14] 104 % of control | [15] 95 % of control | [16] 95 % of control

COc1c(O)c(OC)c2oc3ccccc3c(=O)c2c1OC
inactive: dose: 2.5 mg/kg/injection, schedule: Q01DX009 (ip), vehicle: saline + alcohol 100 % of control | dose: 5.0 mg/kg/injection, schedule: Q01DX009 (ip), vehicle: saline + alcohol 101 % of control | dose: 10.0 mg/kg/injection, schedule: Q01DX009 (ip), vehicle: saline + alcohol 100 % of control

O=NNc1nc2ccccc2s1
inactive: dose: 1.56 mg/kg/injection, schedule: Q01DX009 (ip), vehicle: water 97 % of control | dose: 3.12 mg/kg/injection, schedule: Q01DX009 (ip), vehicle: water 100 % of control and 105 % of control | dose: 6.25 mg/kg/injection, schedule: Q01DX009 (ip), vehicle: water 106 % of control and 109 % of control | dose: 12.5 mg/kg/injection, schedule: Q01DX009 (ip), vehicle: water 100 % of control and 92 % of control | dose: 25.0 mg/kg/injection, schedule: Q01DX009 (ip), vehicle: water 102 % of control and 106 % of control | dose: 50.0 mg/kg/injection, schedule: Q01DX009 (ip), vehicle: water 92 % of control

c1ccc(C2NCCc3ccccc32)cc1 (centres undefined)
inactive: [3] 97 % of control | [4] 105 % of control | [5] 100 % of control

COc1cc(NCC2COc3c(ccc(OC)c3OC)C2=O)c([N+](=O)[O-])cc1OC (centres undefined)
inactive: [12] 90 % of control | [13] 92 % of control | [17] 86 % of control

COc1ccc(C(Nc2ccccn2)c2cc(C(C)(C)C)cc(C(C)(C)C)c2O)cc1 (centres undefined)
inactive: dose: 50.0 mg/kg/injection, schedule: Q01DX005 (ip), vehicle: distilled water + alcohol 105 % of control | dose: 100.0 mg/kg/injection, schedule: Q01DX005 (ip), vehicle: distilled water + alcohol 100 % of control | dose: 200.0 mg/kg/injection, schedule: Q01DX005 (ip), vehicle: distilled water + alcohol 109 % of control

CC1(C)SC(C)(c2ccsc2)N(c2nccs2)C1=O (centres undefined)
inactive: [12] 97 % of control | [13] 96 % of control | [17] 94 % of control

O=[N+]([O-])c1cccnc1Sc1ccnc(Sc2ncccc2[N+](=O)[O-])n1
inactive: [6] 89 % of control | [18] 97 % of control | [19] 100 % of control and 96 % of control | [8] 89 % of control | [20] 89 % of control and 91 % of control

O=C(Nc1ccc(Cl)cc1)Nc1nnc(Cc2ccc(Cl)cc2)o1
inactive: [21] 99 % of control | dose: 100.0 mg/kg/injection, schedule: Q01DX005 (ip), vehicle: saline with Tween-80 87 % of control

COCCC/C=C\N1CCOCC1
inactive: [18] 99 % of control | [19] 101 % of control | [20] 95 % of control

O=C(O)CSC(CC(=O)O)C(F)(F)C(F)(F)C(F)(F)F (centres undefined)
inactive: dose: 176.0 mg/kg/injection, schedule: Q04DX003 (ip), vehicle: saline 100 % of control | dose: 264.0 mg/kg/injection, schedule: Q04DX003 (ip), vehicle: saline 95 % of control

NNC(=O)c1cnn(-c2ccccc2)c1N
inactive: [22] 99 % of control | dose: 30.0 mg/kg/injection, schedule: Q01DX005 (ip), vehicle: saline with Tween-80 93 % of control | [23] 99 % of control and 94 % of control

O=C1OC(c2ccccc2)=N/C1=C\c1ccccc1O
inactive: [3] 101 % of control | [4] 101 % of control | [5] 93 % of control

O=C(Nc1cc2c3ccccc3ccc2c2ccccc12)C(Cl)Cl
inactive: [23] 100 % of control | [24] 100 % of control | dose: 240.0 mg/kg/injection, schedule: Q01DX005 (ip), vehicle: saline with Tween-80 102 % of control

CN1CC2(c3ccccc3)CN(C)CC(c3ccccc3)(C1)C2=O
inactive: dose: 6.25 mg/kg/injection, schedule: Q01DX009 (ip), vehicle: saline with Tween-80 100 % of control | [25] 86 % of control

C/C(=C1\C(=O)Oc2c(ccc3ccccc23)C1=O)c1ccc2ccccc2c1O
inactive: dose: 12.5 mg/kg/injection, schedule: Q01DX005 (ip), vehicle: saline with Tween-80 99 % of control | dose: 25.0 mg/kg/injection, schedule: Q01DX005 (ip), vehicle: saline with Tween-80 99 % of control | [21] 86 % of control and 97 % of control

N[C@H](Cc1c[nH]c2ccccc12)C(=O)O
inactive: [7] 98 % of control | [8] 103 % of control | dose: 400.0 mg/kg/injection, schedule: Q01DX009 (ip), vehicle: saline with Tween-80 103 % of control

O=C1/C(=C/N2CCN(c3ccccc3)CC2)Cc2c(F)cccc21
inactive: [9] 100 % of control | [10] 97 % of control | [11] 100 % of control

O=C(O)/C(Cl)=C(\Cl)C(=O)Nc1cccc([N+](=O)[O-])c1
inactive: dose: 7.5 mg/kg/injection, schedule: Q01DX005 (ip), vehicle: saline with Tween-80 100 % of control | [22] 101 % of control | [23] 100 % of control and 103 % of control | [24] 106 % of control

C=C[Se](=C(C(C)=O)C(C)=O)c1ccccc1 (centres undefined)
inactive: [25] 97 % of control | dose: 25.0 mg/kg/injection, schedule: Q01DX009 (ip), vehicle: saline with Tween-80 96 % of control | [6] 98 % of control | [18] 92 % of control | [19] 99 % of control | [20] 92 % of control
